Molecular target: Carbonic anhydrase 13 (Mus musculus, UniProt Q9D6N1)
Sequence (Q9D6N1 whole entry): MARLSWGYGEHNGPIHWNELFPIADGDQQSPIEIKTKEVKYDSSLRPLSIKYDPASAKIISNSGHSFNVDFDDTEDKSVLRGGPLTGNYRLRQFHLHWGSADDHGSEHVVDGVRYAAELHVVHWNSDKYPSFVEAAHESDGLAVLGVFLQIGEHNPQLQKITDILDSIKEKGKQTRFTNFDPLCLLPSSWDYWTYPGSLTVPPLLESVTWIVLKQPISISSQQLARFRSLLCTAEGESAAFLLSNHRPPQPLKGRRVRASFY
Description: Inhibitory activity against murine carbonic anhydrase XIII (mCA XIII) by using CO2 hydrase assay method

| SMILES | Ki [nM] |
| --- | --- |
| Nc1ccc(S(=O)(=O)NCc2ccc(S(N)(=O)=O)cc2)cc1 | 1.9 |
| Nc1ccc(S(N)(=O)=O)cc1I | 50 |
| Nc1ccc(S(=O)(=O)Nc2ccc(S(N)(=O)=O)cc2)cc1 | 2.4 |
| Nc1ccccc1S(N)(=O)=O | 43 |
| Nc1ccc(S(N)(=O)=O)cc1Br | 54 |
| Nc1ccc(S(N)(=O)=O)cc1F | 50 |
| NCCc1ccc(S(N)(=O)=O)cc1 | 43 |
| Nc1ccc(S(N)(=O)=O)cc1Cl | 56 |
| Nc1ccc(S(=O)(=O)NCCc2ccc(S(N)(=O)=O)cc2)cc1 | 1.3 |
| NCc1ccc(S(N)(=O)=O)cc1 [MAFENIDE] | 41 |
| Nc1ccc(S(N)(=O)=O)cc1 [SULFANILAMIDE] | 32 |
